One assay has as its target hFTase (Homo sapiens, UniProt P49354+P49356). Briefly: In vitro hFTase inhibition: incorporation of [3H]FPP into recombinant H-Ras-CVLS. The assay is classed as biochemical. Conditions: for selectivity (ratio of GGTase-I to FTase IC50s): GGTase-I IC50 / hFTase IC50; for GGTase-I/FTase selectivity: selectivity for hFTase over GGTase-I; for IC50: in vitro, average of three independent assays (n = 3) unless stated, errors are standard deviations.

Another assay concerns farnesylation of H-Ras. The experiment in a line: Whole cell inhibition of H-Ras processing (farnesylation), immunoblot, oncogenic H-Ras-transformed NIH3T3 cells. Conditions: Mus musculus, NIH3T3, whole cells, oncogenic H-Ras-transformed NIH3T3; n = 3 unless stated; read-out: H-Ras processing IC50. The assay is classed as cell-based, mouse. As for the experimental part:
(§1) In vitro inhibition assays for FTase and GGTase-I were conducted by measuring the incorporation of [^3H]FPP and [^3H]GGPP into recombinant H-Ras-CVLS and H-Ras-CVLL, respectively, as previously described (Vogt, et al., Protein geranylgeranylation, not farnesylation, is required for the G1 to S phase transition in mouse fibroblasts. Oncogene, 1996, 13, 1991-1999). The in vivo inhibition of farnesylation and geranylgeranylation was determined based on the level of inhibition by synthetic compounds of H-Ras and Rap1A processing, respectively (Sun, et al., Both farnesyltransferase and geranylgeranyltransferase I inhibitors are required for inhibition of oncogenic K-Ras prenylation but each alone is sufficient to suppress human tumor growth in nude mouse xenografts. Oncogene, 1998, 16, 1467-1473). […] The separated proteins were transferred to nitrocellulose and immunoblotted using an anti-Ras antibody (Y13-258) or an anti-Rap1A antibody (SantaCruz Biotechnology, Santa Cruz, Calif.), respectively. Antibody reactions were visualized using either peroxidase-conjugated goat anti-rat IgG or goat anti-rabbit IgG (Jackson ImmunoResearch, West Grove, Pa.) and an enhanced chemiluminescence detection system.
(§2) Briefly, in vitro inhibition assays for hFTase and GGTase-I were carried out by measuring the incorporation of [^3H]FPP and [^3H]GGPP into recombinant H-Ras-CVLS and H-Ras-CVLL, respectively, as described previously (Vogt et al., Protein geranylgeranylation, not farnesylation, is required for G1 to S phase transition in mouse fibroblasts. Oncogene. 1996; 13:1991-1999). Whole cell inhibition of farnesylation and geranylgeranylation were determined based on the level of inhibition by synthetic compounds of H-Ras and Rap1A processing, respectively (Sun, et al., Both farnesyltransferase and geranylgeranyltransferase I inhibitors are required for inhibition of oncogenic K-Ras prenylation but each alone is sufficient to suppress human tumor growth in nude mouse xenografts. Oncogene. 1998; 16:1467-1473).

Assay [1] has as its system geranylgeranylation of Rap1A. The experiment in a line: Whole cell inhibition of Rap1A processing (geranylgeranylation), immunoblot, oncogenic H-Ras-transformed NIH3T3 cells. Type of assay: cell-based, mouse. Conditions: Mus musculus; whole cells, oncogenic H-Ras-transformed NIH3T3; n = 3 unless stated; read-out: Rap1A processing IC50. As for the experimental part: as §1, §2
Background: A western blot detects proteins with antibodies after separation by electrophoresis.

The target in another assay is GGTase-I (Homo sapiens, UniProt P49354+P53609). The experiment in a line: In vitro GGTase-I inhibition: incorporation of [3H]GGPP into recombinant H-Ras-CVLL. The assay is classed as biochemical. Conditions: average of n = 3 unless stated, errors are standard deviations, read-out: GGTase-1 IC50.

As usually defined, the IC50 is the point on the concentration scale where inhibition reaches its midpoint. In the case of `C#CCN(CCN(Cc1cncn1C)c1ccc(C#N)cc1)S(=O)(=O)c1cn(C)cn1` [1aa], the “selectivity (ratio of GGTase-I to FTase IC50s)” value at hFTase is given as more than 14. Moreover, the figures for the 50% inhibitory concentration (IC50) (in the assay on farnesylation of H-Ras; in assay [1]) were 6 µM and more than 10 µM, respectively.

In the case of `C=C(C)CN(CCN(Cc1cncn1C)c1ccc(C#N)cc1)S(=O)(=O)c1cn(C)cn1` [1ac], at hFTase, the “selectivity (ratio of GGTase-I to FTase IC50s)” value stood at 5.3 and the GGTase-I/FTase selectivity result is listed as “about 5 fold”. For the same molecule, in the assay with farnesylation of H-Ras, the IC50 is more than 10 µM. In addition, the IC50 in assay [1] was more than 10 µM.

As for `C=C(Br)CN(CCN(Cc1cncn1C)c1ccc(C#N)cc1)S(=O)(=O)c1cn(C)cn1` [1ad], the “selectivity (ratio of GGTase-I to FTase IC50s)” value on hFTase was 31. In addition, the IC50 is 5.7 ± 1.5 µM in the assay on farnesylation of H-Ras and more than 10 µM in assay [1].

Regarding `Cn1cnc(S(=O)(=O)N(CCN(Cc2cncn2C)c2ccc(C#N)cc2)CC(=O)NC(C)(C)C)c1` [1ae], at hFTase, the “selectivity (ratio of GGTase-I to FTase IC50s)” value was 7.1. The IC50 (in the assay with farnesylation of H-Ras; in assay [1]) was more than 10 µM in each case.

For the molecule `Cn1cnc(S(=O)(=O)N(CCN(Cc2cncn2C)c2ccc(C#N)cc2)Cc2ccncc2)c1` [1af], the “selectivity (ratio of GGTase-I to FTase IC50s)” value on hFTase is given as more than 139. The IC50 (in the assay with farnesylation of H-Ras; in assay [1]) was more than 10 µM each time.

`Cn1cnc(S(=O)(=O)N(CCN(Cc2cncn2C)c2ccc(C#N)cc2)CCn2cccc2)c1` [1ag]: the “selectivity (ratio of GGTase-I to FTase IC50s)” value at hFTase was 17. For the same molecule, the figures for the IC50 (with farnesylation of H-Ras; in assay [1]) were 4.3 ± 1.5 µM and more than 10 µM, respectively.

Take `Cc1nc(C)c(CN(CCN(Cc2cncn2C)c2ccc(C#N)cc2)S(=O)(=O)c2cn(C)cn2)s1` [1am, [N-(2,4-Dimethyl-thiazol-5-ylmethyl), N-{2-[(4-cyanophenyl)-(3-methyl-3H-imidazol-4-ylmethyl)-amino]-ethyl}]1-methyl-1H-imidazole-4-sulfonamide]: at hFTase, the “selectivity (ratio of GGTase-I to FTase IC50s)” value is on record as more than 1.6. Further, the IC50 (with farnesylation of H-Ras; in assay [1]) was more than 10 µM throughout.

As for `Cn1cnc(S(=O)(=O)N(CCN(Cc2cncn2C)c2ccc(C#N)cc2)Cc2ccc(C#N)cc2)c1` [1as], the “selectivity (ratio of GGTase-I to FTase IC50s)” value at hFTase was determined as 18. Moreover, the IC50 (in the assay on farnesylation of H-Ras; in assay [1]) was more than 10 µM each time.

As to `Cn1cnc(S(=O)(=O)N(CCN(Cc2cncn2C)c2ccc(C#N)cc2)CC2CC2)c1` [1aw, [N-(Cyclopropylmethyl), N-{2-[(4-cyanophenyl)-(3-methyl-3H-imidazol-4-ylmethyl)-amino]-ethyl}]1-methyl-1H-imidazole-4-sulfonamide], on hFTase, the “selectivity (ratio of GGTase-I to FTase IC50s)” value is recorded as more than 17. The IC50 (with farnesylation of H-Ras; in assay [1]) was more than 10 µM each time.

With `Cn1cnc(S(=O)(=O)N(CCN(Cc2cncn2C)c2ccc(C#N)cc2)CC2CCN(C(=O)OC(C)(C)C)CC2)c1` [1ay], the “selectivity (ratio of GGTase-I to FTase IC50s)” value at hFTase is given as more than 2.7. Moreover, the IC50 (in the assay with farnesylation of H-Ras; in assay [1]) was more than 2 µM throughout.

In the case of `Cn1cncc1CN(CCN(Cc1ccccc1)S(=O)(=O)C1CC1)c1ccc(C#N)cc1` [1c, N-Benzyl, N-{2-[(4-cyanophenyl)-(3-methyl-3H-imidazol-4-ylmethyl)-amino]-ethyl}cyclopropanesulfonamide], the IC50 on GGTase-I stood at 5.5 ± 2.7 µM. Besides, at hFTase, the “selectivity (ratio of GGTase-I to FTase IC50s)” value is on record as 65 and the half-maximal inhibitory concentration (IC50) came to 85 ± 0.7 nM.

Turning to `Cn1cncc1CN(CCN(Cc1ccccc1)S(=O)(=O)c1cccs1)c1ccc(C#N)cc1` [1e], the values for the IC50 (on GGTase-I; in assay [1]) were not below 10 µM and more than 10 µM, respectively. For the same molecule, on hFTase, the “selectivity (ratio of GGTase-I to FTase IC50s)” value is on record as 200.

Regarding `Cn1cncc1CN(CCN(Cc1ccccc1)S(=O)(=O)c1cccc2cccnc12)c1ccc(C#N)cc1` [1g], the IC50 is not below 10 µM on GGTase-I and more than 10 µM in assay [1]. In addition, the GGTase-I/FTase selectivity at hFTase is listed as 333 fold.

Take `CN(C)c1cccc2c(S(=O)(=O)N(CCN(Cc3cncn3C)c3ccc(C#N)cc3)Cc3ccccc3)cccc12` [1h]: the IC50 was not below 10 µM on GGTase-I, 0.5 ± 0.3 µM with farnesylation of H-Ras and more than 10 µM in assay [1]. For the same molecule, the “selectivity (ratio of GGTase-I to FTase IC50s)” value on hFTase is 63.

For `Cn1cncc1CN(CCN(CC1CCCCC1)S(=O)(=O)c1ccccn1)c1ccc(C#N)cc1` [21a, N-(2-((4-cyanophenyl)((1-methyl-1H-imidazol-5-yl)methyl)amino)ethyl)-N-(cyclohexylmethyl)pyridine-2-sulfonamide], on hFTase, the “selectivity (ratio of GGTase-I to FTase IC50s)” value was found to be 1.5. In addition, the IC50 in the assay on farnesylation of H-Ras stood at 0.268 ± 0.212 µM; in assay [1] it was 6.2 ± 1.2 µM.

For `Cn1cncc1CN(CCN(CC1CCCCC1)S(=O)(=O)c1ccccn1)c1ccc(C#N)cn1` [21c, N-(2-((5-cyanopyridin-2-yl)((1-methyl-1H-imidazol-5-yl)methyl)amino)ethyl)-N-(cyclohexylmethyl)pyridine-2-sulfonamide], the “selectivity (ratio of GGTase-I to FTase IC50s)” value on hFTase turned out to be 2. For the same molecule, the IC50 stood at 0.288 ± 0.251 µM in the assay with farnesylation of H-Ras and 19 µM in assay [1].

For `Cn1cnc(S(=O)(=O)N(CCN(Cc2cncn2C)c2ccc(C#N)cc2)Cc2ccoc2)c1` [compound 1ah, [N-(Furan-3-ylmethyl), N-{2-[(4-cyanophenyl)-(3-methyl-3H-imidazol-4-ylmethyl)-amino]-ethyl}]1-methyl-1H-imidazole-4-sulfonamide], the “selectivity (ratio of GGTase-I to FTase IC50s)” value on hFTase worked out at 19. Also, the IC50 was 0.65 µM in the assay with farnesylation of H-Ras and more than 10 µM in assay [1].

Turning to `Cc1noc(C)c1CN(CCN(Cc1cncn1C)c1ccc(C#N)cc1)S(=O)(=O)c1cn(C)cn1` [compound 1al, [N-(3,5-Dimethyl-isoxazol-4-ylmethyl), N-{2-[(4-cyanophenyl)-(3-methyl-3H-imidazol-4-ylmethyl)-amino]-ethyl}]1-methyl-1H-imidazole-4-sulfonamide], the “selectivity (ratio of GGTase-I to FTase IC50s)” value at hFTase turned out to be 2.7. The IC50 (in the assay on farnesylation of H-Ras; in assay [1]) was more than 10 µM each time.

As to `Cc1nn(C)c(C)c1CN(CCN(Cc1cncn1C)c1ccc(C#N)cc1)S(=O)(=O)c1cn(C)cn1` [compound 1an, [N-(1,3,5-Trimethyl-1H-pyrazol-4-ylmethyl), N-{2-[(4-cyanophenyl)-(3-methyl-3H-imidazol-4-ylmethyl)-amino]-ethyl}]1-methyl-1H-imidazole-4-sulfonamide], the IC50 was more than 10 µM on GGTase-I and 5300 ± 1700 nM on hFTase. In addition, at hFTase, the “selectivity (ratio of GGTase-I to FTase IC50s)” value was more than 1.9.

Take `Cn1cnc(S(=O)(=O)N(CCN(Cc2cncn2C)c2ccc(C#N)cc2)CC2CCN(c3ncccn3)CC2)c1` [compound 1az]: the “selectivity (ratio of GGTase-I to FTase IC50s)” value on hFTase is on record as more than 20. For the same molecule, the IC50 (in the assay with farnesylation of H-Ras; in assay [1]) was more than 10 µM each time.

`CCCS(=O)(=O)N(CCN(Cc1cncn1C)c1ccc(C#N)cc1)Cc1ccccc1` [compound 1b, N-Benzyl, N-{2-[(4-cyanophenyl)-(3-methyl-3H-imidazol-4-ylmethyl)-amino]-ethyl}propane-1-sulfonamide]: the IC50 is 4.1 ± 1.7 µM on GGTase-I, 48 ± 35 nM on hFTase and more than 10 µM in assay [1]. Moreover, the “selectivity (ratio of GGTase-I to FTase IC50s)” value on hFTase was 85.

`Cn1cnc(S(=O)(=O)N(CCN(Cc2cnc[nH]2)c2ccc(Br)cc2)Cc2ccccc2)c1` [compound 4]: the concentration for half-maximal inhibition (IC50) was 4.4 µM on GGTase-I, 730 ± 20 nM at hFTase, 5.7 ± 1.2 µM in the assay with farnesylation of H-Ras and more than 10 µM in assay [1]. At hFTase, the “selectivity (ratio of GGTase-I to FTase IC50s)” value was 6.0.
